# Reference: patent US20210045385A1, “PYRIDAZINONE-SUBSTITUTED KETOXIMES AS HERBICIDES” (FMC Corporation, priority 2018, published 2021)
# How the values were obtained:
# Format in all cases: in vivo
# [1] = test system: barnyardgrass (Echinochloa crus-galli); experiment: Test A postemergence, visual plant response rating
# Procedure, shortened: (§1)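 Greenhouse pot test in loam–sand soil mix: compound in a surfactant-containing non-phytotoxic solvent applied preemergence (directed soil spray) or postemergence (one- to two-leaf plants, 2–10 cm). Injury scored visually after ~10 days, 0–100.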
# [2] = test system: blackgrass (Alopecurus myosuroides); experiment: Test A postemergence, visual plant response rating
# Procedure, shortened: as §1
# [3] = test system: wheat (Triticum aestivum); experiment: Test A postemergence, visual plant response rating
# Procedure, shortened: as §1
# corn (Zea mays) = experiment: Test A postemergence, visual plant response rating
# Procedure, shortened: as §1
# [4] = test system: foxtail, giant (giant foxtail, Setaria faberii); experiment: Test A postemergence, visual plant response rating
# Procedure, shortened: as §1
# kochia (Kochia scoparia) [5] = experiment: Test A postemergence, visual plant response rating
# Procedure, shortened: as §1
# [6] = test system: pigweed (Amaranthus retroflexus); experiment: Test A postemergence, visual plant response rating
# Procedure, shortened: as §1
# [7] = test system: galium (catchweed bedstraw, Galium aparine); experiment: Test A postemergence, visual plant response rating
# Procedure, shortened: as §1
# [8] = test system: Italian ryegrass (Lolium multiflorum); experiment: Test A postemergence, visual plant response rating
# Procedure, shortened: as §1
# [9] = test system: ragweed (common ragweed, Ambrosia elatior); experiment: Test A postemergence, visual plant response rating
# Procedure, shortened: as §1
# [10] = test system: barnyardgrass (Echinochloa crus-galli); experiment: Test A preemergence, visual plant response rating
# Procedure, shortened: as §1
# [11] = test system: foxtail, giant (giant foxtail, Setaria faberii); experiment: Test A preemergence, visual plant response rating
# Procedure, shortened: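 Ratings 0–100 (100 = complete control), visual, vs untreated controls at ~10 days. Application pre- or postemergence; solvent mixture with surfactant; loam/sand medium.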
# kochia (Kochia scoparia) [12] = experiment: Test A preemergence, visual plant response rating
# Procedure, shortened: as §1
# [13] = test system: pigweed (Amaranthus retroflexus); experiment: Test A preemergence, visual plant response rating
# Procedure, shortened: as §1
# [14] = test system: Italian ryegrass (Lolium multiflorum); experiment: Test A preemergence, visual plant response rating
# Procedure, shortened: as §1
# [15] = test system: ragweed (common ragweed, Ambrosia elatior); experiment: Test A preemergence, visual plant response rating
# Procedure, shortened: as §1
# [16] = test system: barnyardgrass (Echinochloa crus-galli); experiment: Test B flooded paddy test, visual plant response rating; settings: 250 g ai/ha, Flood, applied to paddy water, 2-leaf stage, evaluated after 13 to 15 days
# Procedure, shortened: (§2)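 Flooded-pot treatment: water 3 cm over the soil, chemical delivered into that water, depth unchanged for the duration. Assessed by eye versus controls following 13–15 greenhouse days; plants were at 2 leaves when dosed.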
# [17] = test system: ducksalad (Heteranhera limosa); experiment: as above; settings: 250 g ai/ha, Flood, applied to paddy water, 2-leaf stage, evaluated after 13 to 15 days
# Procedure, shortened: as §2
# [18] = test system: sedge, umbrella (small-flower umbrella sedge, Cyperus difformis); experiment: as above; settings: 250 g ai/ha, Flood, applied to paddy water, 2-leaf stage, evaluated after 13 to 15 days
# Procedure, shortened: as §2
# rice (Oryza sativa) = experiment: as above; settings: 250 g ai/ha, Flood, applied to paddy water, 2-leaf stage, evaluated after 13 to 15 days
# Procedure, shortened: as §2
# [19] = 500 g ai/ha, postemergence, 0 is no effect, 100 is complete control
# [20] = Postemergence, 125 g ai/ha, 0 to 100 scale (0 no effect, 100 complete control)
# [21] = 125 g ai/ha, preemergence, 0 to 100 scale, 0 no effect, 100 complete control
# [22] = 500 g ai/ha Preemergence, approx. 10 days
structure (smiles),measurement,setting,value
CO/N=C(\c1cccc(C)c1F)c1c(O)c(C)nn(C)c1=O [Compound 50],Barnyardgrass plant response rating (0 to 100 scale),[1]; [19],40
same,Barnyardgrass plant response rating,[1]; [20],10
same,Blackgrass plant response rating (0 to 100 scale),[2]; [19],30
same,Blackgrass plant response rating,[2]; [20],0
same,Wheat plant response rating (0 to 100 scale),[3]; [19],0
same,Wheat plant response rating,[3]; [20],0
same,Corn plant response rating (0 to 100 scale),corn (Zea mays); [19],0
same,Corn plant response rating,corn (Zea mays); [20],0
same,"Foxtail, Giant plant response rating (0 to 100 scale)",[4]; [19],70
same,"Foxtail, Giant plant response rating",[4]; [20],20
same,Kochia plant response rating (0 to 100 scale),kochia (Kochia scoparia) [5]; [19],80
same,Kochia plant response rating,kochia (Kochia scoparia) [5]; [20],60
same,Pigweed plant response rating (0 to 100 scale),[6]; [19],90
same,Pigweed plant response rating,[6]; [20],90
same,Galium plant response rating (0 to 100 scale),[7]; [19],70
same,Galium plant response rating,[7]; [20],70
same,"Ryegrass, Italian plant response rating (0 to 100 scale)",[8]; [19],80
same,"Ryegrass, Italian plant response rating",[8]; [20],20
same,Ragweed plant response rating (0 to 100 scale),[9]; [19],80
same,Ragweed plant response rating,[9]; [20],70
same,Barnyardgrass plant response rating,[10]; [21],10
same,Barnyardgrass plant response rating (0 to 100 scale),[10]; [22],60
same,"Foxtail, Giant plant response rating",[11]; [21],0
same,"Foxtail, Giant plant response rating (0 to 100 scale)",[11]; [22],40
same,Kochia plant response rating,kochia (Kochia scoparia) [12]; [21],10
same,Kochia plant response rating (0 to 100 scale),kochia (Kochia scoparia) [12]; [22],70
same,Pigweed plant response rating,[13]; [21],30
same,Pigweed plant response rating (0 to 100 scale),[13]; [22],90
same,"Ryegrass, Italian plant response rating",[14]; [21],30
same,"Ryegrass, Italian plant response rating (0 to 100 scale)",[14]; [22],30
same,Ragweed plant response rating,[15]; [21],50
same,Ragweed plant response rating (0 to 100 scale),[15]; [22],90
same,"Plant response rating, Barnyardgrass (0 to 100 scale, 0 is no effect, 100 is complete control)",[16],0
same,"Plant response rating, Ducksalad (0 to 100 scale, 0 is no effect, 100 is complete control)",[17],0
same,"Plant response rating, Sedge, Umbrella (0 to 100 scale, 0 is no effect, 100 is complete control)",[18],0
same,"Plant response rating, Rice (0 to 100 scale, 0 is no effect, 100 is complete control)",rice (Oryza sativa),0
